Data reported in US6083955A, “Arylethenesulfonamide derivatives and drug composition containing the same” (Yamanouchi Pharmaceutical Co., Ltd., priority 1995, dated 2000).
Like-named read-outs stand apart in the source and are kept apart here.

Columns and labels:
[1] = biological target: T1, human ETA receptor (Homo sapiens, UniProt P25101); assay: Test on Inhibition of Binding of Endothelin (ET-1) to Human ETA Receptor
T1 sequence (P25101 21-427): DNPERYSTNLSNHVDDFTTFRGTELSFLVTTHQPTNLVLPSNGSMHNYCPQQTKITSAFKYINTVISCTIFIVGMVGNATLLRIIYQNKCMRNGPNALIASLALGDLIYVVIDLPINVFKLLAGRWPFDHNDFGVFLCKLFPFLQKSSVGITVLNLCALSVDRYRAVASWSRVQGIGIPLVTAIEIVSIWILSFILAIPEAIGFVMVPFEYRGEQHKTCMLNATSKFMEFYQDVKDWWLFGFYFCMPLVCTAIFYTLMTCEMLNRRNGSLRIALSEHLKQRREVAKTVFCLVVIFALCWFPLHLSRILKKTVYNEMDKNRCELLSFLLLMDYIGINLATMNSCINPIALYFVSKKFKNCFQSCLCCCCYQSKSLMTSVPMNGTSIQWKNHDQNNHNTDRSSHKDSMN
Procedure: (1) Test on Inhibition of Binding of Endothelin (ET-1) to Human ETA Receptor
cDNA of human ETA receptor was obtained from mRNA of human lung by means of an RT-PCR and then transferred into pEF-BOS, a vector for expression, to prepare plasmid. The prepared plasmid was added to a culture of COS-1 cells (cell strain derived from renal cells of African green monkey) with DEAE-dextran and cDNA of human ETA was transfected to COS-1 cells. Then it was incubated for three days in a conventional DMEM (containing 10% of FBS) and the COS-1 cells recovered therefrom were suspended in a hypotonic buffer (10 mM Tris-HCl and 5 mM EDTA; pH 7.4) followed by homogenizing the cells using a Polytron. The suspension in which the cells were homogenized was subjected to an ultracentrifugation (100,000G for 30 minutes at 4° C.), the resulting precipitate (cell membrane fraction) was re-suspended in a Tris buffer (50 mM Tris-HCl and 10 mM MgCl2; pH 7.4) and the suspension was preserved by freezing at -80° C. (protein amount: about 1 mg/ml).
In conducting the experiment of binding the receptor, the frozen cell membrane sample was melted and resuspended in an incubation buffer (50 mM Tris-HCl, 10 mM MgCl2 and 0.01% bovine serum albumin; pH 7.4). The membrane suspension (200 μl) containing 1.25 μg as a membrane protein, 25 μl of an incubation buffer containing a test compound in various concentrations and 25 μl of [^125 I] ET-1 (specific activity: 2,200 Ci/mM; final concentration: […]) were incubated together at 25° C. for three hours and then filtered through a glass fiber filter using a Brandel cell harvester. Measurement of radioactivity on the glass fiber filter was conducted by means of a gamma-counter (counting efficiency: 81%). Nonspecific binding was determined by the use of a test buffer containing 0.1 μM of ET-1. Inhibiting activity of the test compound to [^125 I] ET-1 was calculated as a concentration (IC50) necessary for inhibiting 50% of the specific binding.

[2] = tested on: big ET-1-induced pressor responses; assay: Test on Inhibition of Big ET-1-induced Pressor Responses in Pithed Rats; assay type: in vivo, male Wistar rats; conditions: Rattus norvegicus, 0.5 h, read-out: DR2
Procedure: (3) Test on Inhibition of Big ET-1-induced Pressor Responses in Pithed Rats
Male Wistar rats (body weight: […]) were anesthetized by sodium pentobarbital (60 mg/kg, i.p.) and a cannula for artificial ventilation was inserted into a trachea. Spinal cord was broken by inserting a rod made of steel thereinto and then the rat was connected to an artificial respirator. A catheter for measuring the systemic arterial blood pressure was inserted into a carotid artery while another catheter for administering big ET-1 was inserted into a femoral vein. After 30 minutes from the oral administration of a test compound at doses of 0.1 to 10 mg/kg, the rat was pithed and then big ET-1 was intravenously administered at doses of 0.1 to 3.2 nmol/kg in a cumulative manner. Activity of the test compound was evaluated by the dose (DR2 value) whereby the dose-response curve of pressor responses by big ET-1 to the right hand direction to an extent of two-fold.

[3] = inhibition of [^125 I] ET-1 specific binding, COS-1 cell membranes expressing human ETA, pH 7.4, 25° C., three hours, read-out: IC50
[4] = oral administration 30 minutes before pithing, dose shifting big ET-1 pressor dose-response curve two-fold to the right

`COc1ccccc1Oc1c(NS(=O)(=O)C=Cc2ccccc2Cl)nc(-c2ncccn2)nc1OC` [Example 47, N-[6-Methoxy-5-(2-methoxyphenoxy)-2-(2-pyrimidinyl)-4-pyrimidinyl]-2-(2-chlorophenyl)ethenesulfonamide] gave an IC50 [1, 3] of 3 nM.

`COc1ccccc1Oc1c(NS(=O)(=O)C(C)=Cc2ccccc2)nc(-c2ncccn2)nc1OC` [Example 37, N-[6-Methoxy-5-(2-methoxyphenoxy)-2-(2-pyrimidinyl)-4-pyrimidinyl]-1-methyl-2-phenylethenesulfonamide] was tested, and the IC50 [1, 3] was 1.6 nM.

Compound `COc1ccccc1Oc1c(NS(=O)(=O)C=Cc2ccccc2)nc(-c2ccncc2)nc1OC` [Example 27, N-[6-Methoxy-5-(2-methoxyphenoxy)-2-(4-pyridyl)-4-pyrimidinyl]-2-phenylethenesulfonamide] has an IC50 [1, 3] of 5.9 nM.

In the case of `COc1ccccc1Oc1c(NS(=O)(=O)C=Cc2cccs2)nc(-c2ncccn2)nc1OC` [Example 42, N-[6-Methoxy-5-(2-methoxyphenoxy)-2-(2-pyrimidinyl)-4-pyrimidinyl]-2-(2-thienyl)ethenesulfonamide], the IC50 [1, 3] is reported as 1.5 nM and the ED (2-fold shift) [2, 4] is reported as 1.85 mg/kg.

With `COCCOc1nc(-c2ncccn2)nc(NS(=O)(=O)C=Cc2ccccc2)c1Oc1ccccc1OC` [Example 6, N-[6-(2-Methoxyethoxy)-5-(2-methoxyphenoxy)-2-(2-pyrimidinyl)-4-pyrimidinyl]-2-phenylethenesulfonamide] the IC50 [1, 3] was 4.8 nM.

Work on `C#CCOc1nc(-c2ncccn2)nc(NS(=O)(=O)C=Cc2ccccc2)c1Oc1ccccc1OC` [Example 13, N-[6-(2-propynyloxy)-5-(2-methoxyphenoxy)-2-(2-pyrimidinyl)-4-pyrimidinyl]-2-phenylethenesulfonamide] yielded an IC50 [1, 3] of 5.5 nM.

`COc1ccccc1Oc1c(NS(=O)(=O)C=Cc2ccccc2)nc(-c2ccoc2)nc1OC` [Example 34, N-[6-Methoxy-5-(2-methoxyphenoxy)-2-(3-furyl)-4-pyrimidinyl]-2-phenylethenesulfonamide] gave an IC50 [1, 3] of 9.7 nM.

For `COc1ccccc1Oc1c(NS(=O)(=O)C=Cc2ccccc2)nc(-c2ccsc2)nc1OC` [Example 32, N-[6-Methoxy-5-(2-methoxyphenoxy)-2-(3-thienyl)-4-pyrimidinyl]-2-phenylethenesulfonamide], the IC50 [1, 3] was 5.1 nM.

`COc1ccccc1Oc1c(NS(=O)(=O)C=Cc2ccccc2)nc(-c2csc(C)n2)nc1OC` [Example 33, N-[6-Methoxy-5-(2-methoxyphenoxy)-2-(2-methyl-4-thiazolyl)-4-pyrimidinyl]-2-phenylethenesulfonamide] gave an IC50 [1, 3] of 7.7 nM.

In the case of `COc1ccccc1Oc1c(NS(=O)(=O)C=Cc2ccc3ccccc3c2)nc(-c2ncccn2)nc1OC` [Example 45, N-[6-Methoxy-5-(2-methoxyphenoxy)-2-(2-pyrimidinyl)-4-pyrimidinyl]-2-(2-naphthyl)ethenesulfonamide], the IC50 [1, 3] is reported as 4.4 nM.

With `CCC(=Cc1ccccc1)S(=O)(=O)Nc1nc(-c2ncccn2)nc(OC)c1Oc1ccccc1OC.[K]` [Example 38, Potassium N-[6-methoxy-5-(2-methoxyphenoxy)-2-(2pyrimidinyl)-4-pyrimidinyl]-1-ethyl-2-phenylethenesulfonamidate] the IC50 [1, 3] was 3.3 nM and the ED (2-fold shift) ([2]; po) was 0.65 mg/kg.

With `COc1cc(OC)cc(-c2nc(NS(=O)(=O)C=Cc3ccccc3)c(Oc3ccccc3OC)c(OC)n2)c1` [Example 22, N-[2-(3,5-Dimethoxyphenyl)-6-methoxy-5-(2-methoxyphenoxy)-4-pyrimidinyl]-2-phenylethenesulfonamide] the IC50 [1, 3] was 9.5 nM.

Compound `COc1ccccc1Oc1c(NS(=O)(=O)C=Cc2ccc(C)cc2)nc(-c2ncccn2)nc1OC` [Example 39, N-[6-Methoxy-5-(2-methoxyphenoxy)-2-(2-pyrimidinyl)-4-pyrimidinyl]-2-(4-methylphenyl)ethenesulfonamide] has an IC50 [1, 3] of 2.8 nM.

`COc1ccccc1Oc1c(NS(=O)(=O)C=Cc2ccccc2)nc(-c2ncccn2)nc1OCCO` [Example 1, potassium N-[6-(2-hydroxyethoxy)-5-(2-methoxyphenoxy)-2-(2-pyrimidinyl)-4-pyrimidinyl]-2-phenylethenesulfonamidate] showed an IC50 [1, 3] of 1.6 nM.

Work on `COc1ccccc1Oc1c(NS(=O)(=O)C=Cc2ccccc2)nc(-c2ncccn2)nc1OC` [Example 2, N-[6-methoxy-5-(2-methoxyphenoxy)-2-(2-pyrimidinyl)-4-pyrimidinyl]-2-phenylethenesulfonamide] yielded an IC50 [1] of 3.1 nM and an ED (2-fold shift) ([2]; po) of 0.61 mg/kg.

Compound `COc1ccccc1Oc1c(NS(=O)(=O)c2ccc(C(C)(C)C)cc2)nc(-c2ncccn2)nc1OCCO` [Comparative Compound, Bosentan, reference compound] has an ED (2-fold shift) [2, 4] of 32 mg/kg.

`COc1ccccc1Oc1c(NS(=O)(=O)C=Cc2ccccc2)nc(-c2ncccn2)nc1OCCF` [Example 8, N-[6-(2-fluoroethoxy)-5-(2-methoxyphenoxy)-2-(2-pyrimidinyl)-4-pyrimidinyl]-2-phenylethenesulfonamide] gave an IC50 [1, 3] of 2.9 nM.
